Results taken from patent US20260345584A1, “METHODS AND PHARMACEUTICAL COMPOSITIONS FOR TREATING CHEMOTHERAPY-INDUCED PERIPHERAL NEUROPATHY WITH EG5 INHIBITORS” (UNIVERSITY OF MIAMI, priority 2023, published 2026).

Columns and labels:
mouse DRG neurons = conditions: cultured mouse DRG neurons (Haque et al., 2004); cited from earlier work
[1] = tested on: CIPN caused by bortezomib; conditions: mice (Bobylev et al., 2017); cited from earlier work
cutaneous sensory axons = test: Axon branch number in caudal fin (acetylated tubulin staining); format: in vivo, zebrafish
Protocol: (§1) The stock solution was divided into 20-30 μl aliquots and stored at −20 °C until use (maximal 6 months). Immediately prior to use, paclitaxel was diluted in Ringer's solution and added to dechorionated larval zebrafish. The larval fish were placed individually or in small groups into wells of a 12-well plate containing the treatment solutions. The control group was 0.05% DMSO. Plates were incubated at 28.5 °C and protected from light. Treatment lengths are indicated in the Drawings, Description of the Drawings, and Examples where appropriate. […] EMD534085, Eg5 inhibitor (MedChemExpress, Cat. No. HY-15000) was diluted in 100% DMSO to make a 10 mM stock solution and stored at −20 °C. […] The solutions were exchanged every 48 hr.
(§2) Larval fish were transferred into […] glass vials and fixed in 4% paraformaldehyde (PFA)/1× Phosphate-buffered saline (PBS) for 1.5 hr at room temperature, with gentle rocking. Following a 5-minute incubation in 1×PBS+0.1% Tween-20 (PBST), zebrafish were permeabilized in 1×PBS+0.1% Triton X-100 for 10-30 min. Larval fish were transferred into 2 ml reaction tubes and incubated in blocking buffer (1×PBST+5% BSA) for 30 min at room temperature, with rocking. Larval fish were further incubated overnight in antibody solution (Millipore Sigma, Cat. No. AB3201, 1:300 rabbit anti-GluTub; Sigma, Cat No. T6793, 1:500 mouse anti-acetylated tubulin) in blocking buffer at 4 °C, on a rotator. The next morning, larval fish were transferred into 6-well plates and washed 4×15 min in 1×PBST at room temperature, with rocking. This was followed by incubation in secondary antibody (goat anti-rabbit Cy5, Abcam, Cat. No. ab97077; goat anti-mouse Cy3, Abcam, Cat. No. ab97035) and 1:10,000 Hoechst 33342 (ThermoFisher Scientific, Cat. No. 62249, 20 mM solution) in blocking buffer for 1 hr at room temperature, with rocking. Fish were covered to avoid bleaching. Fish were washed for 4×15 min in 1×PBST at room temperature, with rocking, and immediately mounted for imaging on glass bottom petri dishes (Spectrum Laboratory Products, Cat. No. 750-10403-UE) using 1% agarose (Thermo Fisher Scientific, Cat. No. 16520050). A 1:200 dilution was used for mouse alpha-tubulin antibody (Proteintech, Cat. No. 66031-1) and a 1:1,000 dilution of donkey anti-mouse IgG Alexa488 (ThermoFisher Scientific, Cat. No. A-21202) for secondary detection. For Nox1 immunostaining, a 1:300 dilution of primary antibody (Anti-NOX1 Rabbit Polyclonal Antibody, Avantar, Cat. No. 102164-796) and a 1:1,000 dilution of secondary goat anti-rabbit Cy2 (Abcam, Cat. No. ab6940) antibody was used. Eg5 antibody (Abcam, Cat. No. 61199) was used at a 1:100 and secondary goat anti-rabbit Cy2 (Abcam, Cat. No. ab6940) at 1:1,000 dilution.
Axon branch number quantifications were performed by drawing a 50 μm line across the dorsal, medial, and ventral caudal fin edge region at a distance of 100 μm parallel to the fin edge (which was determined to be the most reliable region to quantify distal branch numbers). Axons traversing this line were counted and averaged per treatment group. Axonal fluorescence measurements were taken using the Imaris Spots function by manually placing spots along the axon and using the fluorescence intensity profile measurements MatLab tool.
Stretching was performed after 96 hr treatment, followed by 2 hr post-stretch fixation, and staining for detection of acetylated tubulin in axons.
To further validate Eg5 as the pharmacological target of EMD534085 in axon regeneration, zebrafish injected with kif11 CRISPR oligo were also analyzed.

[2] = tested on: caudal fin keratinocytes (dfMTs); test: dfMT formation (detyrosinated fasciculated looped microtubules) in zebrafish caudal fin keratinocytes; format: in vivo
Protocol: as §1, §2
CRISPR oligos targeting kif11 were designed using the IDT CRISPR design tool (https://www.idtdna.com/site/order/designtool/index/CRISPR_CUSTOM). The oligo (5′-[…] (SEQ ID NO: 21) was designed to anneal within exon 5 of 23 exons total in zebrafish kif11 with expected mutations ~ position 270 bp in the sequenced region using the following primers for PCR amplification: Fwd 5′-[…]-3′ (SEQ ID NO: 22) and Rev 5′-[…]-3′ (SEQ ID NO: 23). The forward primer was used for sequencing and yielded deletions in transiently injected embryos, as shown in example below in which single zebrafish were sequenced (FIG. 10).
The CRISPR oligo was injected using the Alt-R system (IDT, https://www.idtdna.com/pages/technology/crispr/crispr-genome-editing/Alt-R-systems/cas9), which has provided highly reliable and efficient zebrafish knockout results as used herein. The IDT-recommended protocol (below) was used for CRISPR oligo preparations. Fertilized eggs were injected ~15 minutes post fertilization with CRISPR oligos to ensure maximal efficiency.
Cell counting in the caudal fin was performed in three 100 μm^2 boxes in the dorsal, medial and ventral caudal fin (~100 μm from the edge). […]

[3] = tested on: microtubule detyrosination in keratinocytes; test: GluTub immunofluorescence of detyrosinated microtubules in zebrafish caudal fin keratinocytes; format: in vivo; conditions: 96 hr
Protocol: as §1
Larval fish were transferred into […] glass vials and fixed in 4% paraformaldehyde (PFA)/1× Phosphate-buffered saline (PBS) for 1.5 hr at room temperature, with gentle rocking. Following a 5-minute incubation in 1×PBS+0.1% Tween-20 (PBST), zebrafish were permeabilized in 1×PBS+0.1% Triton X-100 for 10-30 min. Larval fish were transferred into 2 ml reaction tubes and incubated in blocking buffer (1×PBST+5% BSA) for 30 min at room temperature, with rocking. Larval fish were further incubated overnight in antibody solution (Millipore Sigma, Cat. No. AB3201, 1:300 rabbit anti-GluTub; Sigma, Cat No. T6793, 1:500 mouse anti-acetylated tubulin) in blocking buffer at 4 °C, on a rotator. The next morning, larval fish were transferred into 6-well plates and washed 4×15 min in 1×PBST at room temperature, with rocking. This was followed by incubation in secondary antibody (goat anti-rabbit Cy5, Abcam, Cat. No. ab97077; goat anti-mouse Cy3, Abcam, Cat. No. ab97035) and 1:10,000 Hoechst 33342 (ThermoFisher Scientific, Cat. No. 62249, 20 mM solution) in blocking buffer for 1 hr at room temperature, with rocking. Fish were covered to avoid bleaching. […]
Fluorescence intensities were measured using the Imaris MATLAB plugin or Fiji. A line was typically placed over the region of interest and the fluorescence automatically quantified. The values were normalized to nuclear (Hoechst33342) fluorescence intensities within the same fish and region to obtain an intensity ratio.
Stabilized microtubules undergo a modification whereby the terminal tyrosine residue was removed, leading to detyrosination (dMT) (Roll-Mecak et al., 2020, Developmental cell 54: 7-20), which was associated with particularly long-term stabilized microtubule populations (Khawaja et al., 1988, The Journal of cell biology 106: 141-149). Exposure of the penultimate glutamate residue can be detected using a GluTub antibody. […]

Eg5 = Eg5 immunofluorescence in zebrafish caudal fin; format: in vivo; conditions: transient kif11 CRISPR, exon 5
Protocol: as §1
Larval fish were transferred into […] glass vials and fixed in 4% paraformaldehyde (PFA)/1× Phosphate-buffered saline (PBS) for 1.5 hr at room temperature, with gentle rocking. Following a 5-minute incubation in 1×PBS+0.1% Tween-20 (PBST), zebrafish were permeabilized in 1×PBS+0.1% Triton X-100 for 10-30 min. Larval fish were transferred into 2 ml reaction tubes and incubated in blocking buffer (1×PBST+5% BSA) for 30 min at room temperature, with rocking. […]

Molecule | neurite outgrowth (mouse DRG neurons) | effect on CIPN caused by bortezomib [1] | axon branch number (cutaneous sensory axons; kif11-CRISPR+22 μM paclitaxel) | axon branch number (cutaneous sensory axons; kif11-CRISPR+vehicle) | number of keratinocytes per animal with dfMTs ([2]; kif11 CRISPR+22 μM paclitaxel) | percent animals with dfMTs ([2]; kif11 CRISPR+22 μM paclitaxel) | number of keratinocytes per animal with dfMTs ([2]; kif11 CRISPR+vehicle) | percent animals with dfMTs ([2]; kif11 CRISPR+vehicle) | normalized detyrosination fluorescence intensity ([3]; kif11 CRISPR + paclitaxel) | normalized detyrosination fluorescence intensity ([3]; kif11 CRISPR+vehicle) | Eg5 protein expression (Eg5)
CCOC(=O)C1=C(C)NC(=S)NC1c1cccc(O)c1 (centres unmarked) [monastrol] | promotes neurite outgrowth | shown to alleviate CIPN caused by bortezomib |  |  |  |  |  |  |  |  | 
kif11 CRISPR: CRISPR oligo (5′-AGGTGACCGATCACCCAATG (SEQ ID NO: 21)) targeting exon 5 of zebrafish kif11, injected as Cas9 ribonucleoprotein (injected as Cas9 ribonucleoprotein, chemistry not given here) |  |  | 12.83±0.96 branches/50 μm | 12.08±0.68 branches/50 μm | 0.29±0.16 | 25% | 0±0 | 0% | 0.85±0.11 | 1.12±0.2 | eliminated Eg5 protein expression
